Measurements taken from PubChem BioAssay AID1421 (Emory University Molecular Libraries Screening Center, 2008).
Where “and” joins values, the source holds several entries; their conditions need not be identical. Equal values may be shown once. Calls of active or inactive are those of the source. How the calls were made is not given here.

Molecular target: Prostaglandin E2 receptor EP2 subtype (Homo sapiens) (UniProt P43116)
Experiment: EP2 receptor modulators, dose response, cell-based, human EP2, PGE2 EC50 shift (AID 1421)
Details: EP2-expressing cells, PGE2 EC50 shift by compound

Sequence of Prostaglandin E2 receptor EP2 subtype (Homo sapiens) (P43116 whole entry, looked up): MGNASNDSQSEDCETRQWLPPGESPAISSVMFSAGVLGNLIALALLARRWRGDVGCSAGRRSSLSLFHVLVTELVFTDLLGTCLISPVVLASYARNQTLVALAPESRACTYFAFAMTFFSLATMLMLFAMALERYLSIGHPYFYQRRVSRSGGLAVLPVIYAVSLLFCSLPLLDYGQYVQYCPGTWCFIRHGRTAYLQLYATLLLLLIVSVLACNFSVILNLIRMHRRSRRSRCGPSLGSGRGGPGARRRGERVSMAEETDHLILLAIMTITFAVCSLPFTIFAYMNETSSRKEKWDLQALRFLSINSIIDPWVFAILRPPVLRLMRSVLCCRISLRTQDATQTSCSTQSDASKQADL

| Structure (SMILES) | outcome |
| --- | --- |
| O=c1c2ccccc2nc2n1C1(CCCCC1)Cc1ccccc1-2 | active |
| COc1ncnc2c1oc1nc(CC(C)C)c3c(c12)CCCC3 | active |
| O=C(Nc1ccccc1N1CCCCC1)c1ccccc1F | active |
| O=C(CSc1nnc(-c2ccc(Cl)cc2)n1Cc1ccco1)c1cccs1 | active |
| CCOC(=O)C1=C(CN2CCc3ccccc32)NC(=O)NC1c1ccc(Cl)cc1 (stereo not given) | active |
| CCCn1c2ccccc2c2nc3ccccc3nc21 | active |
| C=CCSc1nc2sc(C)c(C)c2c(=O)n1CC=C | active |
| COC(=O)c1c(NC(=O)C2CC2)sc2c1CCCC2 | active |
| COc1nc(-c2ccccc2)nnc1-c1ccccc1 | active |
| COC1(C)CC2C(CC1OC(=O)c1cc([N+](=O)[O-])cc([N+](=O)[O-])c1)C2(C)C (stereo not given) | active |
| CCCc1cc(C(=O)OC)c(NC(=O)c2cc(C)on2)s1 | active |

Same assay, conditions: EP2-expressing cells, PGE2 EC50 shift by compound; measured here: PGE2 EC50 at 6.7 uM compound

| Structure (SMILES) | PGE2 EC50 with compound |
| --- | --- |
| COc1ccc(-n2c(CCc3ccccc3)nnc2SCC(=O)c2ccccc2)cc1 | 1.57 nM |
| Cc1cc(C)c(S(=O)(=O)c2ccccc2)c(OC(=O)c2cc(F)c(F)cc2Cl)n1 | 0.91 nM |
| O=C(COc1cccc2ccccc12)N1c2ccccc2CCc2ccccc21 | 1.19 nM |
| COc1ccccc1CN(C)CC(=O)Nc1ccccc1-c1ccccc1 | 1.43 nM |
| O=c1cc(N2CCCCC2)c(-c2ccccc2)nn1Cc1ccccc1 | 1.25 nM |
| CCc1oc2ccccc2c1C(=O)c1cc(Br)c(O)c(Br)c1 | 1.02 nM and 0.68 nM |
| CS(=O)(=O)N(Cc1ccccc1)c1ccccc1C(=O)Nc1ccccc1C(=O)NCc1ccco1 | 3.04 nM |
| CC(=O)C1CC[C@H]2C3CC[C@H]4C[C@H](O)CC[C@]4(C)C3CC[C@]12C (stereo not given in full) | 0.89 nM |
| CCOC(=O)/C(N=Nc1c(Br)cc(Br)cc1Br)=C(\C)O | 0.84 nM |
| O=C(Nc1ccccc1)c1nn(-c2cccc(C(F)(F)F)c2)ccc1=O | 2.72 nM |
| Cc1ccc(C2CC(c3cccs3)=NN2C(=O)c2ccc(Br)o2)cc1 (stereo not given) | 0.75 nM |
| CCOC(=O)CSc1nc(-c2ccccc2)nc2ccccc12 | 0.87 nM |
| N#Cc1sc2nc(C3CC3)cc(-c3ccccc3)c2c1N | 0.78 nM |
| O=c1c2ccccc2nc2n1C1(CCCCC1)Cc1ccccc1-2 | 0.95 nM |
| CC1=C(/C=C/C(C)=C/C=C/C(C)=C/C(=O)O)C(C)(C)CCC1 | 1.19 nM |
| CCOc1ccccc1Cn1c(=O)oc2ccc(C)cc21 | 1.09 nM |
| COc1ncnc2c1oc1nc(CC(C)C)c3c(c12)CCCC3 | 0.91 nM |
| Nc1ccc(SC(F)(F)F)cc1C(=O)c1ccccc1 | 2.39 nM |
| COc1c(Cl)cc(Cl)cc1C(=O)n1nc(C)cc1C | 1.14 nM |
| O=C(Nc1ccccc1N1CCCCC1)c1ccccc1F | 0.61 nM |
| Cc1cc(C)c2nc(N3CCCN(C(=O)c4ccco4)CC3)c(C#N)cc2c1 | 0.64 nM |
| CCOC(=O)C1=C(N)OC(C)=C(C#N)C1c1ccco1 (stereo not given) | 1.49 nM |
| CC(Sc1nnc(-c2cccs2)n1Cc1ccccc1)C(=O)NCc1ccc2c(c1)OCO2 (stereo not given) | 0.62 nM |
| CC(=O)Nc1sc2c(c1C(c1cccs1)N1CCOCC1)CCCC2 (stereo not given) | 0.99 nM |
| COC(=O)c1sccc1NC(=O)c1cccc(OC)c1 | 1.42 nM |
| C=CCc1cccc(/C=N/c2nc3ccccc3n2CC)c1O | 0.63 nM |

| Structure (SMILES) | PGE2 EC50 with compound |
| --- | --- |
| c1ccc(-c2cc(-c3ccncc3)nc3ccc4ccccc4c23)cc1 | 0.69 nM |
| Cc1cc2ccc(C)c(C)c2nc1SCC#N | 1.18 nM |
| C=CCn1c(-c2oc3nc(-c4ccccc4)cc(-c4ccccc4)c3c2N)n[nH]c1=S | 1.45 nM |
| CCOP(=O)(OCC)c1nc(-c2cccc3ccccc23)oc1NCCc1ccc(OC)cc1 | 0.96 nM |
| Cc1ccc(-n2c(Cc3cccc4ccccc34)n[nH]c2=S)c(C)c1 | 0.68 nM |
| CC(OC(=O)c1oc2ccccc2c1COc1ccccc1)C(=O)NC(N)=O (stereo not given) | 2.83 nM |
| C/C(=C\c1ccc(C(=O)O)cc1)c1ccc2c(c1)C(C)(C)CCC2(C)C | 0.79 nM |
| CCC1C/C(=C/c2ccco2)C(=O)/C(=C/c2ccco2)C1 (stereo not given) | 1.02 nM |
| Cc1sc(NC(=O)Cc2ccc3c(c2)OCO3)nc1-c1ccc2c(c1)CCN2C(=O)c1cccc(F)c1 | 0.97 nM |
| CC(Sc1cnc2ccccc2n1)C(=O)O (stereo not given) | 2.61 nM |
| CC(C)c1nc(N2CCN(C(=O)c3ccccc3)CC2)c(C#N)c2c1COC(C)(C)C2 | 0.97 nM |
| O=C(CSc1nnc(-c2ccc(Cl)cc2)n1Cc1ccco1)c1cccs1 | 2.65 nM |
| Cc1nc(NC(C)c2ccccc2)c2c3c(sc2n1)CCC3 (stereo not given) | 0.78 nM |
| N#CC1=C(S)N(c2ccccc2)C2(CCCCC2)NC1=O | 1.12 nM |
| O=C(Nc1cccc(Cl)c1N1CCCC1)c1ccc(Br)o1 | 1.61 nM |
| COc1cc(CN2CCC(C(=O)N3CCN(c4ccccc4F)CC3)CC2)cc(OC)c1OC | 0.75 nM |
| CSc1nc2ccccc2c(=O)n1Cc1ccc(F)cc1 | 0.87 nM |
| Cc1cc(Oc2ccccc2F)nc(NCc2ccccc2)n1 | 1.34 nM |
| CCn1c2ccccc2c2nc3ccccc3nc21 | 1.55 nM |
| C=C[C@@](C)(O)CCC1C(=C)C[C@H](O)C2C(C)(C)CCCC12C (stereo not given in full) | 2.91 nM |
| COc1ccc(-n2c(COc3cccc4ccccc34)nnc2SCC(=O)NCc2ccco2)cc1 | 1.07 nM |
| Cc1cc(Br)c2nc3c(c(C(=O)O)c2c1)CCCCC3 | 2.78 nM |
| CCn1nnc(-c2ccccc2NC(=O)c2cc(OC)cc(OC)c2)n1 | 0.95 nM |
| Nc1cc(Cl)ccc1Oc1ccc(Cl)cc1 | 0.75 nM |
| COc1ccccc1C(CC(=O)c1ccccc1)CC(=O)c1ccccc1 | 2.56 nM |
| CC1(C)C2CCC1(C)C(OC(=O)CC(=O)O)C2 (stereo not given) | 0.72 nM |

| Structure (SMILES) | PGE2 EC50 with compound |
| --- | --- |
| CC1(C)CC2CC(C)(CN2c2ncnc3ccc(Br)cc23)C1 (stereo not given) | 1.52 nM |
| CCCCn1c(=O)c(C(=O)NCc2ccco2)c(O)c2ccccc21 | 2.62 nM |
| CCCc1cc(=O)[nH]c(SCC(=O)N2CCC(C(=O)OCC)CC2)n1 | 0.64 nM |
| CCOC(=O)C1=C(CN2CCc3ccccc32)NC(=O)NC1c1ccc(Cl)cc1 (stereo not given) | 1.21 nM |
| [N-]=[N+]=Nc1ccc(C(=O)CSC[C@H](NC(=O)CC[C@H](N)C(=O)O)C(=O)NCC(=O)O)cc1 | 0.8 nM |
| COC[C@H]1OC(=O)c2coc3c2[C@@]1(C)C1=C(C3=O)C2CCC(=O)[C@@]2(C)C[C@H]1OC(C)=O (stereo not given in full) | 0.84 nM |
| COC(=O)c1ccc(CSc2ncnc3c2oc2ccccc23)o1 | 2.45 nM |
| COc1ccc(-c2nnc3ccc(SCC(=O)Nc4nc5ccccc5s4)nn23)cc1OC | 0.67 nM |
| CC1(C)Cc2nc3sc4c(SCC(=O)NC(c5ccccc5)c5ccccc5)ncnc4c3cc2CO1 | 1.48 nM |
| O=C(c1ccco1)N(Cc1cccc([N+](=O)[O-])c1)c1ccc(Br)cc1 | 1.01 nM |
| Cc1ccc(-n2c(=S)[nH]c3c(oc4ccccc43)c2=O)cc1 | 2.77 nM |
| CCCCNc1nc(-c2ccccc2)c(C(=O)OCC)cc1C#N | 0.88 nM |
| CCOc1ccc(C2=Nn3c(nnc3-c3ccccc3OC)SC2)cc1 | 0.91 nM |
| Cc1cc(NC(=O)Cn2nnc3sc4c(c3c2=O)CCC(C(C)(C)C)C4)no1 (stereo not given) | 0.98 nM |
| O=C(c1cccs1)c1cn(Cc2ccccc2Cl)c2ccccc12 | 2.63 nM |
| COc1cccc2[nH]c3c(N4CCCC(C)C4)ncnc3c12 (stereo not given) | 23.2 nM |
| CCCC/C(=N\NC(=O)c1ccc(Br)o1)c1ccccc1 | 2.49 nM |
| CCOC(=O)c1ccccc1NC(=O)C1COc2ccccc2O1 (stereo not given) | 0.66 nM |
| O=C(c1ccccc1O)N1N=C(c2ccccc2)CC1(O)C(F)(F)F (stereo not given) | 1.48 nM |
| CCCn1c2ccccc2c2nc3ccccc3nc21 | 1.21 nM |
| Cc1ccc(Cl)cc1NC1=NC(=S)N(C(C)C)C12CCCCC2 | 0.77 nM |
| S=c1nc[nH]c2c1[nH]c1ccccc12 | 1.29 nM |
| Cc1ccc2c(c1)N(S(=O)(=O)c1ccc(F)cc1)C(C(C)(C)C)CO2 (stereo not given) | 1.11 nM |
| CC(=O)N1Cc2ccccc2C(C)CC12CCCCC2 (stereo not given) | 0.93 nM |
| FC(F)(F)c1cccc(/C=N/NC(=S)NC2CCCCC2)c1 | 0.42 nM |
| C=CCSc1nc2sc(C)c(C)c2c(=O)n1CC=C | 0.83 nM |

| Structure (SMILES) | PGE2 EC50 with compound |
| --- | --- |
| CN=C1CC(SC)=C1c1ccc(C)cc1 | 0.84 nM |
| CCOC(=O)c1c(C=O)c(C)n(Cc2ccc(C)cc2)c1C | 1.31 nM |
| CCOC(=O)Nc1sc2c(c1C(=O)OCC)CCC2 | 0.84 nM |
| CCn1c2ccc(Cl)cc2c2nc3ccccc3nc21 | 0.98 nM |
| O=c1c2ccccc2nc(N2CCCC2)n1-c1ccc(Cl)cc1 | 2.64 nM |
| COC(=O)c1c(NC(=O)C2CC2)sc2c1CCCC2 | 0.95 nM |
| COc1cc(S(=O)(=O)N(Cc2cccnc2)Cc2ccco2)ccc1-n1cnnn1 | 1.45 nM |
| CCOc1ccc(Cl)cc1S(=O)(=O)n1cnc2cc(C)c(C)cc21 | 1.16 nM |
| COc1nc(-c2ccccc2)nnc1-c1ccccc1 | 1.05 nM |
| Cn1c(=O)c(NCCc2ccccc2)c2c3c(cccc31)C(=O)c1ccccc1-2 | 0.31 nM |
| CC(C)CCn1c(Oc2ccc(Cl)cc2)nc2c1c(=O)n(C)c(=O)n2C | 0.72 nM |
| COc1cc2c(cc1OC)CN(c1ccc(-c3ccccc3OC)nn1)CC2 | 1.64 nM |
| COC1(C)CC2C(CC1OC(=O)c1cc([N+](=O)[O-])cc([N+](=O)[O-])c1)C2(C)C (stereo not given) | 2.79 nM |
| Cc1ccc(N/C(C(Cl)=C(Cl)Cl)=C(/Cl)[N+](=O)[O-])c(C)c1 | 1.32 nM |
| COC(=O)c1c(NC(=O)Cc2cccs2)sc2c1CCCC2 | 1.02 nM |
| COc1cnc(SCc2c(Cl)cccc2Cl)nc1Cl | 1.76 nM |
| Cc1ccc2nc(SCC(=O)NCc3ccco3)c(C)cc2c1 | 0.76 nM |
| CCCc1cc(C(=O)OC)c(NC(=O)c2cc(C)on2)s1 | 0.7 nM |
| CCCCCn1c(SCCC(C)C)nc2c1c(=O)[nH]c(=O)n2C | 1.21 nM |
| CCCSc1nc(N2CCOCC2)c2c(c1C#N)CCCC2 | 1.06 nM |
| Cc1cc2ccccc2nc1SCC(=O)NC1CCCC1 | 1.4 nM |
| CCOc1ccc(-c2nn3c(-c4ccccc4)nnc3s2)cc1 | 1.04 nM |
| O=C(CN1CCCCCCC1)Nc1ccc(Cl)cc1Cl | 1.11 nM |
| Cc1ccc(S(=O)(=O)N(CC(=O)N=Nc2c(O)[nH]c3ccccc23)c2ccc(C)c(C)c2)cc1 | 2.05 nM |
| CCOP(=O)(OCC)c1nc(-c2ccccc2)oc1NCc1ccccc1 | 1.04 nM |
| COc1ccc(C2CC(C(F)(F)F)n3nc(C(N)=O)c(Cl)c3N2)cc1OC (stereo not given) | 0.71 nM |
